Source: PubChem BioAssay (NCI)
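Dose response: 5 concentrations. Exposure: 48 h. Format: 96-well plates. Endpoint: linear interpolation; highest concentration if not reached. TGI denotes the concentration required for complete inhibition of growth.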

What was measured:
Test in all cases: NCI tumour cell line growth inhibition, 48 h
HCT-15 colon = tested on: HCT-15 colon
CCRF-CEM leukemia = tested on: CCRF-CEM leukemia
SF-539 CNS = tested on: SF-539 CNS
SF-268 CNS = tested on: SF-268 CNS
SN12C renal = tested on: SN12C renal
OVCAR-8 ovarian = tested on: OVCAR-8 ovarian
OVCAR-5 ovarian = tested on: OVCAR-5 ovarian
UACC-62 melanoma = tested on: UACC-62 melanoma
OVCAR-3 ovarian = tested on: OVCAR-3 ovarian
OVCAR-4 ovarian = tested on: OVCAR-4 ovarian
MDA-MB-435 = tested on: MDA-MB-435
DU-145 prostate = tested on: DU-145 prostate
SK-MEL-28 melanoma = tested on: SK-MEL-28 melanoma
NCI-H226 lung = tested on: NCI-H226 lung
MALME-3M melanoma = tested on: MALME-3M melanoma
SF-295 CNS = tested on: SF-295 CNS
BT-549 breast = tested on: BT-549 breast
MCF7 breast = tested on: MCF7 breast
RXF 393 renal = tested on: RXF 393 renal
NCI-H522 lung = tested on: NCI-H522 lung
A549 NSCLC = tested on: A549 NSCLC
UO-31 renal = tested on: UO-31 renal
M14 melanoma = tested on: M14 melanoma
SNB-19 CNS = tested on: SNB-19 CNS
HT29 colon = tested on: HT29 colon
COLO 205 colon = tested on: COLO 205 colon
SW-620 colon = tested on: SW-620 colon
HCC-2998 colon = tested on: HCC-2998 colon
HOP-92 NSCLC = tested on: HOP-92 NSCLC
TK-10 renal = tested on: TK-10 renal
UACC-257 melanoma = tested on: UACC-257 melanoma
SK-MEL-2 melanoma = tested on: SK-MEL-2 melanoma
HCT-116 colon = tested on: HCT-116 colon
LOX IMVI melanoma = tested on: LOX IMVI melanoma
NCI-H460 lung = tested on: NCI-H460 lung
K-562 leukemia = tested on: K-562 leukemia
786-0 renal = tested on: 786-0 renal
RPMI-8226 leukemia = tested on: RPMI-8226 leukemia
CAKI-1 renal = tested on: CAKI-1 renal
MOLT-4 leukemia = tested on: MOLT-4 leukemia
NCI/ADR-RES ovarian = tested on: NCI/ADR-RES ovarian
EKVX NSCLC = tested on: EKVX NSCLC
HS 578T breast = tested on: HS 578T breast
T-47D breast = tested on: T-47D breast
A498 renal = tested on: A498 renal
PC-3 prostate = tested on: PC-3 prostate
SK-MEL-5 melanoma = tested on: SK-MEL-5 melanoma
SR leukemia = tested on: SR leukemia
SK-OV-3 ovarian = tested on: SK-OV-3 ovarian
HL-60(TB) leukemia = tested on: HL-60(TB) leukemia
NCI-H23 lung = tested on: NCI-H23 lung
MDA-MB-231 breast = tested on: MDA-MB-231 breast
MDA-N = tested on: MDA-N
ACHN renal = tested on: ACHN renal
HOP-62 NSCLC = tested on: HOP-62 NSCLC
KM12 colon = tested on: KM12 colon
IGROV1 ovarian = tested on: IGROV1 ovarian
U251 CNS = tested on: U251 CNS
SNB-75 CNS = tested on: SNB-75 CNS

`O=Cc1ccc(-c2nccc3c2[nH]c2ccccc23)o1` was tested, and the TGI (HCT-15 colon) was over 100 µM, the TGI (CCRF-CEM leukemia) was over 100 µM and the TGI (SF-539 CNS) was over 100 µM. The TGI (SF-268 CNS) was over 100 µM, the TGI (SN12C renal) was over 100 µM and the TGI (OVCAR-8 ovarian) was over 100 µM. It also gave a TGI (OVCAR-5 ovarian) of over 100 µM, a TGI (UACC-62 melanoma) of over 100 µM and a TGI (OVCAR-3 ovarian) of over 100 µM. It also gave a TGI (OVCAR-4 ovarian) of over 100 µM, a TGI (MDA-MB-435) of over 100 µM and a TGI (DU-145 prostate) of over 100 µM. For the same compound, the TGI (SK-MEL-28 melanoma) was over 100 µM, the TGI (NCI-H226 lung) was 9.86 µM and the TGI (MALME-3M melanoma) was over 100 µM. The TGI (SF-295 CNS) was 51.2 µM, the TGI (BT-549 breast) was over 100 µM and the TGI (MCF7 breast) was over 100 µM. For the same compound, the TGI (RXF 393 renal) was over 81.9 µM, the TGI (NCI-H522 lung) was over 100 µM and the TGI (A549 NSCLC) was over 100 µM. For the same compound, the TGI (UO-31 renal) was over 100 µM, the TGI (M14 melanoma) was over 100 µM and the TGI (SNB-19 CNS) was over 100 µM. For the same compound, the TGI (HT29 colon) was over 100 µM, the TGI (COLO 205 colon) was over 100 µM and the TGI (SW-620 colon) was over 100 µM. The TGI (HCC-2998 colon) was over 100 µM, the TGI (HOP-92 NSCLC) was 98.6 µM and the TGI (TK-10 renal) was over 100 µM. For the same compound, the TGI (UACC-257 melanoma) was over 55.9 µM, the TGI (SK-MEL-2 melanoma) was over 100 µM and the TGI (HCT-116 colon) was over 100 µM. The TGI (LOX IMVI melanoma) was over 56.2 µM, the TGI (NCI-H460 lung) was over 100 µM and the TGI (K-562 leukemia) was over 100 µM. For the same compound, the TGI (786-0 renal) was over 100 µM, the TGI (RPMI-8226 leukemia) was over 100 µM and the TGI (CAKI-1 renal) was 41.4 µM. It also gave a TGI (MOLT-4 leukemia) of over 100 µM, a TGI (NCI/ADR-RES ovarian) of over 100 µM and a TGI (EKVX NSCLC) of over 100 µM. It also gave a TGI (HS 578T breast) of over 100 µM, a TGI (T-47D breast) of over 100 µM and a TGI (A498 renal) of 1.46 µM. The TGI (PC-3 prostate) was over 100 µM, the TGI (SK-MEL-5 melanoma) was over 100 µM and the TGI (SR leukemia) was over 100 µM. The TGI (SK-OV-3 ovarian) was over 100 µM, the TGI (HL-60(TB) leukemia) was over 100 µM and the TGI (NCI-H23 lung) was over 100 µM. It also gave a TGI (MDA-MB-231 breast) of over 100 µM, a TGI (MDA-N) of over 100 µM and a TGI (ACHN renal) of over 100 µM. It also gave a TGI (HOP-62 NSCLC) of over 100 µM, a TGI (KM12 colon) of over 100 µM and a TGI (IGROV1 ovarian) of over 100 µM. It also gave a TGI (U251 CNS) of over 100 µM and a TGI (SNB-75 CNS) of over 100 µM.
`O=C(O)CCC(=O)C(=O)O` gave a TGI (HCT-15 colon) of over 100 µM, a TGI (CCRF-CEM leukemia) of over 100 µM and a TGI (SF-539 CNS) of over 100 µM. It also gave a TGI (SF-268 CNS) of over 100 µM, a TGI (SN12C renal) of over 100 µM and a TGI (OVCAR-8 ovarian) of over 100 µM. The TGI (OVCAR-5 ovarian) was over 100 µM, the TGI (UACC-62 melanoma) was over 100 µM and the TGI (OVCAR-3 ovarian) was over 100 µM. It also gave a TGI (OVCAR-4 ovarian) of over 100 µM, a TGI (MDA-MB-435) of over 100 µM and a TGI (DU-145 prostate) of over 100 µM. For the same compound, the TGI (SK-MEL-28 melanoma) was over 100 µM, the TGI (NCI-H226 lung) was over 100 µM and the TGI (MALME-3M melanoma) was over 100 µM. It also gave a TGI (SF-295 CNS) of over 100 µM, a TGI (BT-549 breast) of over 100 µM and a TGI (MCF7 breast) of over 100 µM. For the same compound, the TGI (RXF 393 renal) was over 100 µM, the TGI (NCI-H522 lung) was over 100 µM and the TGI (A549 NSCLC) was over 100 µM. The TGI (UO-31 renal) was over 100 µM, the TGI (M14 melanoma) was over 100 µM and the TGI (SNB-19 CNS) was over 100 µM. The TGI (HT29 colon) was over 100 µM, the TGI (COLO 205 colon) was over 100 µM and the TGI (SW-620 colon) was over 100 µM. The TGI (HCC-2998 colon) was over 100 µM, the TGI (HOP-92 NSCLC) was over 100 µM and the TGI (TK-10 renal) was over 100 µM. For the same compound, the TGI (UACC-257 melanoma) was over 100 µM, the TGI (SK-MEL-2 melanoma) was over 100 µM and the TGI (HCT-116 colon) was over 100 µM. For the same compound, the TGI (LOX IMVI melanoma) was over 100 µM, the TGI (NCI-H460 lung) was over 100 µM and the TGI (K-562 leukemia) was over 100 µM. It also gave a TGI (786-0 renal) of over 100 µM, a TGI (RPMI-8226 leukemia) of over 100 µM and a TGI (CAKI-1 renal) of over 100 µM. It also gave a TGI (MOLT-4 leukemia) of over 100 µM, a TGI (NCI/ADR-RES ovarian) of over 100 µM and a TGI (EKVX NSCLC) of over 100 µM. It also gave a TGI (HS 578T breast) of over 100 µM, a TGI (T-47D breast) of over 100 µM and a TGI (A498 renal) of over 100 µM. The TGI (PC-3 prostate) was over 100 µM, the TGI (SK-MEL-5 melanoma) was over 100 µM and the TGI (SR leukemia) was over 100 µM. The TGI (SK-OV-3 ovarian) was over 100 µM, the TGI (HL-60(TB) leukemia) was over 100 µM and the TGI (NCI-H23 lung) was over 100 µM. It also gave a TGI (MDA-MB-231 breast) of over 100 µM, a TGI (MDA-N) of over 100 µM and a TGI (ACHN renal) of over 100 µM. The TGI (HOP-62 NSCLC) was over 100 µM, the TGI (KM12 colon) was over 100 µM and the TGI (IGROV1 ovarian) was over 100 µM. It also gave a TGI (U251 CNS) of over 100 µM and a TGI (SNB-75 CNS) of over 100 µM.
Work on `CN(CCN(C)CCN(C)C(=O)Cc1ccc(Cl)c(Cl)c1)CCN1CCCC1` yielded a TGI (HCT-15 colon) of over 100 µM, a TGI (CCRF-CEM leukemia) of 30.9 µM and a TGI (SF-539 CNS) of 46.2 µM. The TGI (SF-268 CNS) was over 100 µM, the TGI (SN12C renal) was over 100 µM and the TGI (OVCAR-8 ovarian) was over 100 µM. The TGI (OVCAR-5 ovarian) was over 100 µM, the TGI (UACC-62 melanoma) was 16.6 µM and the TGI (OVCAR-3 ovarian) was over 100 µM. The TGI (OVCAR-4 ovarian) was over 100 µM, the TGI (MDA-MB-435) was 21.6 µM and the TGI (DU-145 prostate) was over 100 µM. For the same compound, the TGI (SK-MEL-28 melanoma) was 6.07 µM, the TGI (NCI-H226 lung) was 61.3 µM and the TGI (MALME-3M melanoma) was 36.6 µM. The TGI (SF-295 CNS) was 41.5 µM, the TGI (BT-549 breast) was 77.1 µM and the TGI (MCF7 breast) was 57.2 µM. The TGI (RXF 393 renal) was 39 µM, the TGI (NCI-H522 lung) was 41.4 µM and the TGI (A549 NSCLC) was over 100 µM. For the same compound, the TGI (UO-31 renal) was 3.93 µM, the TGI (M14 melanoma) was over 100 µM and the TGI (SNB-19 CNS) was over 100 µM. The TGI (HT29 colon) was 27.3 µM, the TGI (COLO 205 colon) was 33.8 µM and the TGI (SW-620 colon) was over 100 µM. It also gave a TGI (HCC-2998 colon) of 26 µM, a TGI (HOP-92 NSCLC) of 24.1 µM and a TGI (TK-10 renal) of 58.1 µM. It also gave a TGI (UACC-257 melanoma) of 17.5 µM, a TGI (SK-MEL-2 melanoma) of 31.8 µM and a TGI (HCT-116 colon) of over 100 µM. It also gave a TGI (LOX IMVI melanoma) of 36.3 µM, a TGI (NCI-H460 lung) of 82.1 µM and a TGI (K-562 leukemia) of 12.9 µM. For the same compound, the TGI (786-0 renal) was 49.6 µM, the TGI (RPMI-8226 leukemia) was 22.8 µM and the TGI (CAKI-1 renal) was over 100 µM. For the same compound, the TGI (MOLT-4 leukemia) was 29.1 µM, the TGI (NCI/ADR-RES ovarian) was over 100 µM and the TGI (EKVX NSCLC) was over 100 µM. It also gave a TGI (HS 578T breast) of over 100 µM, a TGI (T-47D breast) of 51.7 µM and a TGI (A498 renal) of 32 µM. The TGI (PC-3 prostate) was over 100 µM, the TGI (SK-MEL-5 melanoma) was 35.3 µM and the TGI (SR leukemia) was 34.1 µM. It also gave a TGI (SK-OV-3 ovarian) of over 100 µM, a TGI (HL-60(TB) leukemia) of 61.3 µM and a TGI (NCI-H23 lung) of over 100 µM. For the same compound, the TGI (MDA-MB-231 breast) was 53.9 µM, the TGI (MDA-N) was 25.1 µM and the TGI (ACHN renal) was over 100 µM. The TGI (HOP-62 NSCLC) was 86.1 µM, the TGI (KM12 colon) was over 100 µM and the TGI (IGROV1 ovarian) was over 100 µM. It also gave a TGI (U251 CNS) of 41.3 µM and a TGI (SNB-75 CNS) of 73.3 µM.
